Measurements as given in US10538506B2, “Crystal form of a potassium-competitive acid blocker and preparation method thereof” (Jiangsu Hansoh Pharmaceutical Group Co., Ltd., priority 2014, dated 2020).

Tests used:
[1] = Long-term stability testing, inspection items; format: physicochemical; details: for Appearance / Content (%) / HPLC identification / Moisture (%) / Particle size d (0.5) / Particle size d (0.9) / Related substance (%) Maximum unknown single impurity / Related substance (%) Total impurities: 30° C./65% humidity
Protocol: The samples were prepared according to the method of Example 1, and then were placed under the long-term stability conditions (temperature: 30° C.±2° C.; humidity: 65%±5%) for six months.

[2] = Hygroscopicity: weight gain due to moisture absorption; format: physicochemical
Protocol: The samples were prepared according to the method of Example 1, and the following tests were carried out:
(1) placing the sample at 25° C. and 75% humidity;
(2) placing the sample at 25° C. and 92.5% humidity.
The aforementioned two samples were taken and tested at different time points to investigate weight gain of the samples due to moisture absorption.

Appearance ([1]; 0 months): White powder | Content (%) ([1]; 0 months): 99.6% | HPLC identification ([1]; 0 months): Consistent | Moisture (%) ([1]; 0 months): 0.04% | Particle size d (0.5) ([1]; 0 months): d (0.5) ≤15 μm | Particle size d (0.9) ([1]; 0 months): d (0.9) ≤30 μm | Related substance (%) Maximum unknown single impurity ([1]; 0 months): 0.03% | Related substance (%) Total impurities ([1]; 0 months): 0.12% | Appearance ([1]; 3 months): White powder | Content (%) ([1]; 3 months): 100.0% | HPLC identification ([1]; 3 months): Consistent | Moisture (%) ([1]; 3 months): 0.08% | Particle size d (0.5) ([1]; 3 months): d (0.5) ≤15 μm | Particle size d (0.9) ([1]; 3 months): d (0.9) ≤30 μm | Related substance (%) Maximum unknown single impurity ([1]; 3 months): 0.04% | Related substance (%) Total impurities ([1]; 3 months): 0.13% | Appearance ([1]; 6 months): White powder | Content (%) ([1]; 6 months): 99.7% | HPLC identification ([1]; 6 months): Consistent | Moisture (%) ([1]; 6 months): 0.08% | Particle size d (0.5) ([1]; 6 months): d (0.5) ≤15 μm | Particle size d (0.9) ([1]; 6 months): d (0.9) ≤30 μm | Related substance (%) Maximum unknown single impurity ([1]; 6 months): 0.03% | Related substance (%) Total impurities ([1]; 6 months): 0.13% | Stability ([1]; long-term storage conditions, 30° C.±2° C., humidity 65%±5%, six months, fumarate): good stability | weight gain due to moisture absorption (%) ([2]; 25° C./RH 75%, 5 days): 0.01% | weight gain due to moisture absorption (%) ([2]; 25° C./RH 75%, 10 days): 0.13% | weight gain due to moisture absorption (%) ([2]; 25° C./RH 75%, 30 days): 0.12% | weight gain due to moisture absorption (%) ([2]; 25° C./RH 92.5%, 5 days): 0.17% | weight gain due to moisture absorption (%) ([2]; 25° C./RH 92.5%, 10 days): 0.12% | weight gain due to moisture absorption (%) ([2]; 25° C./RH 92.5%, 30 days): 0.19%
Compound: CNCc1cc(-c2ccccc2F)n(S(=O)(=O)c2cccnc2)c1.O=C(O)/C=C/C(=O)O [Example 1, 1-[5-(2-fluorophenyl)-1-(pyridin-3-ylsulfonyl)-1H-pyrrol-3-yl]-N-methylmethanamine fumarate]
